{
  "source": "patent US12240840B2",
  "about": "“Amide-substituted heterocyclic compounds for the treatment of conditions related to the modulation of IL-12, IL-23 and/or IFN-alpha” (BRISTOL-MYERS SQUIBB COMPANY, priority 2018, dated 2025)",
  "test_system": "IFNα-induced pSTAT5 (pY694) in CD3 positive cells of human whole blood",
  "assay": "IFNα-Induced STAT Phosphorylation in Human Whole Blood",
  "format": "cell-based",
  "conditions": "Homo sapiens, 1 h compound incubation, 1000 U/mL recombinant human IFNα A/D for 15 min, pSTAT5 in CD3 positive population, read-out: Human WB IFNα-Induced Stat Phosph. (IC50)",
  "in_short": "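Read-out is median fluorescence intensity of pSTAT5 (pY694) in the CD3-positive gate, by flow cytometry after fix/lyse and permeabilization. Before that, whole human blood anticoagulated with EDTA or ACD-A received compound for an hour and 1000 U/mL IFNα A/D for 15 min.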",
  "data": [
    {"smiles": "[2H]C([2H])([2H])NC(=O)c1nnc(NC(=O)C2CC2)cc1Nc1cccc(-c2nc(C)c(C(=O)NCCC3CCCN3C)s2)c1OC", "note": "(stereo not shown) [Example 355]", "values": [
      {"measurement": "IC50", "result": 380, "unit": "nM"}
    ]}
  ]
}
